Test results: US20060100168A1, “Method of treating cancer using adenosine and its analogs” (The Trustee of Boston University, priority 2002, published 2006)
Where “and” joins values, the source holds several entries; their conditions need not be identical. Identical values can stand only once.

Legend:
MCF-7 cells [1] = experiment: Apoptosis by propidium iodide staining and flow cytometry (sub-diploid events); type: cell-based, human; details: 100 μM
Protocol: (§1) Flow Cytometry and Apoptosis Analysis: Cells were detached from tissue culture plates by trypsin treatment. Cells were collected by centrifugation at 1200 g for 5 minutes and washed once with PBS. Staining of cells with propidium iodide and analysis on a flow cytometer (FACScan, Becton Dickinson, Research Triangle Park, N.C.) was performed as described before (42). Data were analyzed with CellQuest software (Becton Dickinson, Research Triangle Park, N.C.). The percentage of cells appearing with a ploidy level smaller than a diploid content was calculated as an estimate of cells undergoing apoptosis.

MCF-7 cells [2] = experiment: Cell cycle analysis by flow cytometry; type: cell-based, human
Protocol: as §1

Hs578T cells [3] = experiment: Anchorage-dependent growth assay; type: cell-based, human; details: 100 μM, three days
Protocol: (§2) Anchorage-dependent growth assay: Cells were plated into 6-well plates and grown overnight before treatments. The seeding concentration of MCF-7 cells was 2×10^5/well, which was determined during preliminary experiments as not allowing the cells to reach confluency within 3 days. Cells were treated either with vehicle or ligands, as indicated. Cells were detached by incubation with trypsin (Invitrogen, Carlsbad, Calif.) and counted with a hemacytometer before or after treatment.

ZR-75 cells = experiment: Anchorage-dependent growth assay; type: cell-based, human; details: 100 μM, three days
Protocol: as §2

Hs578T cells [4] = experiment: Apoptosis by propidium iodide staining and flow cytometry; type: cell-based, human; details: 100 μM, two days
Protocol: as §1

[5] = system: MCF-7+A3 cells (stably transfected with human A3AR cDNA); experiment: Soft agar assay with MCF-7 cells stably expressing A3 adenosine receptor; type: cell-based; details: MCF-7+A3 pool vs MCF-7
Protocol: Anchorage-independent growth (soft agar) assay: Soft agar assay was performed as described (40) with the following modifications. Ligands were added into the bottom and top agar before plating into 6-well plates. Cells were treated with trypsin (Invitrogen, Carlsbad, Calif.) for 5 minutes in a 37° C. incubator and pipetted several times so that most cells were in single cell forms. Cells were counted with a hemacytometer (Hausser Scientific/VWR, So. Plainfield, N.J.), and 10,000 cells were mixed with top agar and plated into each well. After the top agar had solidified, two ml of medium containing the same treatment was added on top of the agar. This covering medium was changed every two days during culture. After two weeks of culture, each well was counted for the number of colonies formed on an Olympus IX70 microscope under 40× optical amplification. A cell colony was defined as any cluster of cells that contain more than 3 cells. The average of counts from 3 random optical fields for each well was taken as the colony number and analyzed. Each treatment was performed in triplicates. The averages and standard deviations shown in the figures were calculated based on triplicate experiments. […] Clones of cells grown up were analyzed for their A3AR expression using RT-PCR.

[6] = system: estrogen receptor β (ERβ) mRNA; experiment: Semi-quantitative RT-PCR of ERβ mRNA in MCF-7 cells; type: cell-based, human; details: 100 μM
Protocol: Total RNA preparation and Reverse Transcription Polymerase Chain Reaction (RT-PCR): Total RNA from MCF-7 cells was prepared with Trizol (Invitrogen, Carlsbad, Calif.) as described before (41). For reverse transcription, 2 μg of RNA were used in a […] with random primers and M-MLV reverse transcriptase (Invitrogen, Carlsbad, Calif.), following the manufacturer's protocol. To control for possible contamination from genomic DNA in subsequent PCR reactions, control reverse transcription reactions were carried out under identical conditions, only without reverse transcriptase. After reverse transcription, 5% of the product was used in each PCR reaction. For the experiments analyzing A3 adenosine receptor (A3AR) expression, 27 cycles were used in the PCR reactions. Specific primers were designed for human A3AR, which match to two separate exons, according to genomic sequences (from GenBank). Sequences for the sense and antisense A3AR primers are: 5′tccatcatgtccttgctg3′ (SEQ ID NO: 1) and 5′gcacatgacaaccaggg3′ (SEQ ID NO.: 2). In the experiments analyzing estrogen receptor a (ERα) mRNA, semi-quantitative PCR reactions were carried out with 23 cycles for ERα primers and 19 cycles for GAPDH primers (used as a control). The cycle numbers were tested in previous experiments not to produce saturation effects. […]

CMV promoter = experiment: Reporter gene assay pCMV-β-Gal in MCF-7 cells; type: cell-based, human; details: MCF-7 transfected with pCMV-β-Gal; 12 hours
Protocol: (§3) Transfections and Reporter Gene Assay: Transient transfection was performed using FuGene6 (Roche, Indianapolis, Ind.) transfection reagent according to manufacturer's protocol. Circular reporter plasmid pERE-Tk-Luc at 10 μg and 10 μg of pCMV-β-Gal (as a measure of efficiency of trasnfection) were transfected with 50 μl of FuGene6. Cells were split into 6 well plates 12 hours after transfection, and incubated overnight in fresh medium. […] Luciferase and β-galactosidase activities were measured as described before (43, 44).

[7] = system: MCF-7 cells overexpressing ERα; experiment: Growth of MCF-7 cells transiently transfected with pcDNA3-ERα; type: cell-based, human; details: 100 μM; one day; transfection efficiency approximately 40%
Protocol: as §3, with “Anchorage-dependent growth assay: Cells were plated into 6-well plates and grown overnight before treatments. The seeding concentration of MCF-7 cells was 2×10^5/well, which was determined during preliminary experiments as not allowing the cells to reach confluency within 3 days. Cells were treated either with vehicle or ligands, as indicated. Cells were detached by incubation with trypsin (Invitrogen, Carlsbad, Calif.) and counted with a hemacytometer before or after treatment. Transfections” for “Transfections”

CNC(=O)[C@H]1O[C@@H](n2cnc3c(NCc4cccc(I)c4)ncnc32)[C@H](O)[C@@H]1O [IB-MECA, N^6-(3-iodobenzyl)adenosine-5′-N-methyluronamide]
Apoptosis, in words (MCF-7 cells [1]; two days): non significant change | Apoptosis (MCF-7 cells [1]; 2 days of treatment, except adenosine (500 μM) and inosine (1 mM), number of apoptotic cells compared to vehicle control (set to 1), average ± SD): 1.12 ± 0.02 | Percentage of cells in G2/M (tetraploid DNA content) (MCF-7 cells [2]; 100 μM for 2 days, vehicle 24.6%): 23.4% and 23% | Percentage of cells in S phase (MCF-7 cells [2]; 100 μM for 2 days, vehicle 25.2%): 12.3% and 12% | Percentage of cells in G1 phase (diploid DNA content) (MCF-7 cells [2]; 100 μM for 2 days, vehicle 50.2%): 64.2% and 64% | Percentage change of diploid (G0 or G1 phase) population compared to vehicle-treated cells (MCF-7 cells [2]; 100 μM, except adenosine (500 μM) and inosine (1 mM), first number in parentheses): 28% | Percentage change of S phase population compared to vehicle-treated cells (MCF-7 cells [2]; 100 μM, except adenosine (500 μM) and inosine (1 mM), second number in parentheses): −51% | Percentage change of tetraploid (G2 or M phase) population compared to vehicle-treated cells (MCF-7 cells [2]; 100 μM, except adenosine (500 μM) and inosine (1 mM), third number in parentheses): −5% | Cell counts after treatment compared to day 0, in words (Hs578T cells [3]): affected more severely | Cell counts after treatment compared to day 0, in words (ZR-75 cells): decreased only mildly | Apoptosis, in words (Hs578T cells [4]): substantial apoptosis | Dosage response of colony formation compared to normal MCF-7 cells [5]: almost identical dosage response | Estrogen receptor β message level [6]: not significantly reduced | CMV promoter activity (CMV promoter): did not show any decrease in activity | Effect on growth of ERα-overexpressing cells [7]: moderate effect on growth
